Measured values published in PubChem BioAssay AID1963848 (Molecular Pharmacology Branch, DTP, NCI, 2024).
Several values for one entry are separate records, joined by “and”; a condition that tells them apart may be missing. Identical values can stand only once.

System: 379773-124-R-J2-PDC spheroid viability
Test: Anticancer human tumor 379773-124-R-J2-PDC patient-derived endometrial carcinoma cell line growth inhibition [POLQ]
Conditions: spheroids with HUVEC and MSC; for viability, T/C: stronger effect = lower value; for IC50: curve of compound
Method: Multicellular complex tumor spheroid response to Polymerase (POL) inhibitors (novobiocin, ART-558, RP6685) in combination with a variety of drugs and investigational agents in selected tumor cell lines
The POL inhibitors (novobiocin, ART-558, and RP6685) were evaluated both individually and in combination with standard of care and investigational anticancer small molecules within a complex spheroid model of solid tumors. . Complex spheroids include a stromal component modeled by human endothelial cells (HUVEC) and fibroblasts modeled by human mesenchymal stem cells (MSCs). The concentration ranges selected for each drug and investigational agent were based upon clinically achievable concentrations if the clinical Cmax of the agent was known.
Compounds. The drugs and investigational agents: novobiocin (NSC847541), ART-558 (NSC835418), RP-6685 (NSC848927), peposertib (NSC802822), ceralasertib (NSC780249), elimusertib (NSC800525), camonsertib (NSC841442), AZD-1390 (NSC803789), olaparib (NSC753686), talazoparib (NSC767125), rucaparib (NSC756644), sotorasib (NSC818433), MRTX-1133 (NSC836407), SN-38 (NSC673596), topotecan (NSC609699), epotoside (NSC141540), doxorubicin (NSC123127), gemcitabine (NSC613327), 5-fluorouracil (NSC19893), paclitaxel (NSC125973), vemurafenib (NSC761431), MSA-2 (NSC828583), SN-011 (NSC837082), adavosertib (NSC754352), prexasertib (NSC758257), carboplatin (NSC241240) and oxaliplatin (NSC266046), were obtained from the National Cancer Institute (NCI) Developmental Therapeutics Program Chemical Repository (21). The FDA-approved anticancer drug set is available from the Developmental Therapeutics Program at https://dtp.cancer.gov/organization/dscb/obtaining/. […] The stock solutions were prepared in dimethyl sulfoxide (DMSO, Sigma-Aldrich, St. Louis, MO, cat. D2650), except for the platinum compounds which were prepared in saline (Quality Biological, Gaithersburg, MD, cat. 114-055-101), at 800-fold the tested concentration and stored at -70 degrees C prior to their use. All drugs and investigational agents were tested over a range starting from a high concentration at or near the clinical Cmax and decreasing in half-log increments. If the clinical Cmax for an agent had not been determined, the highest concentration tested was 10 microM, except for SN-38, which was tested at a high concentration of 1 microM.
Cell Culture. All cells were maintained in an incubator at 37 degrees C and 5% CO2 with 95% humidity. The PDC lines were cultured according to standard operating procedures established by the NCI PDMR (https://pdmr.cancer.gov). Table 3 of the manuscript, lists the cell lines along with the number of the three cell types plated to form the mct-spheroids and media for tumor cell growth. After thawing, all PDC lines, except 997537-175-T-J1-PDC and 415267-285-R-J2-PDC, were cultured in Matrigel-coated flasks prepared with a working solution of 1X Ham's F-12 nutrient mix, without supplementation (Thermo Fisher Scientific, cat. 11765054), 100 U/mL penicillin-streptomycin (Thermo Fisher Scientific, cat. 15140122), and 2.5% Matrigel (Corning Inc., Corning, NY, cat. 354248) for the first three passages. The two PDC lines 997537-175-T-J1-PDC and 415267-285-R-J2-PDC were cultured on uncoated flasks. The 857933-349-R-J2-PDC line was cultured in 6C/Colon 1B media containing advanced DMEM/F-12 (Thermo Fisher Scientific, cat. 12634028), 10 mM HEPES (Thermo Fisher Scientific, cat. 15630080), 1X GlutaMAX supplement (Thermo Fisher Scientific, cat. 35050061), 0.1 mg/mL primocin (InvivoGen, San Diego, CA, cat. ant-pm-2), 10% defined fetal bovine serum, heat inactivated (HyClone Laboratories Inc., Logan, UT, cat. SH30070.03HI), 50% L-WRN conditioned media (ATCC, cat. CRL-3276), 1.25 mM N-Acetyl-L-cysteine (Sigma-Aldrich, cat. A9165), 10 mM nicotinamide (Sigma-Aldrich, cat. N0636), 1X B-27 supplement (Thermo Fisher Scientific, cat. 17504044), 1X N-2 supplement (Thermo Fisher Scientific, cat. […]
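Note: spheroids exposed to drugs for seven days before readout.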
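Throughout, for viability, T/C: percent viability relative to DMSO vehicle control taken as 100%.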

| SMILES | viability, T/C (compound 0.0316 µM) | viability, T/C (compound 0.1 µM) | viability, T/C (compound 0.316 µM) | viability, T/C (compound 1 µM) | viability, T/C (compound 3.16 µM) | viability, T/C (compound 10 µM) | IC50 | viability, T/C (compound 0.00316 µM) | viability, T/C (compound 0.01 µM) | viability, T/C (compound 0.00949 µM) | viability, T/C (compound 0.03 µM) | viability, T/C (compound 0.0949 µM) | viability, T/C (compound 0.3 µM) | viability, T/C (compound 0.949 µM) | viability, T/C (compound 3 µM) | viability, T/C (compound 0.000316 µM) | viability, T/C (compound 0.001 µM) |
| --- | --- | --- | --- | --- | --- | --- | --- | --- | --- | --- | --- | --- | --- | --- | --- | --- | --- |
| C#Cc1c(F)ccc2cc(O)cc(-c3ncc4c(N5CC6CCC(C5)N6)nc(OCC56CCCN5CC(F)C6)nc4c3F)c12 (stereo unspecified) | 89.7% and 98.6% and 95.6% | 75.8% and 86.8% and 84.9% | 76.9% and 105% and 79.6% | 82.7% and 98.4% and 90.6% | 87.1% and 98.4% and 87.7% | 81.7% and 93% and 90.7% | > 10000 nM |  |  |  |  |  |  |  |  |  |  |
| C=CC(=O)N1CCN(c2nc(=O)n(-c3c(C)ccnc3C(C)C)c3nc(-c4c(O)cccc4F)c(F)cc23)C(C)C1 (stereo unspecified) | 97.8% and 95.1% and 86.4% | 86.7% and 106% and 91.7% | 70% and 103% and 89.9% | 86.1% and 93.1% and 87.7% | 88.5% and 95.5% and 97.6% | 78.4% and 95.8% and 85.6% | > 10000 nM |  |  |  |  |  |  |  |  |  |  |
| C=CCn1c(=O)c2cnc(Nc3ccc(N4CCN(C)CC4)cc3)nc2n1-c1cccc(C(C)(C)O)n1 | 86.5% and 84.1% and 94.8% | 91.2% and 98.4% and 89.9% | 67.7% and 74.7% and 79.6% | 2.93% and 2.98% and 6.11% |  |  | 434 nM and 470 nM and 503 nM | 95.2% and 88.4% and 90.7% | 83.8% and 82.6% and 88.3% |  |  |  |  |  |  |  |  |
| CC(=O)O[C@H]1C(=O)[C@@]2(C)[C@H]([C@H](OC(=O)c3ccccc3)[C@]3(O)C[C@H](OC(=O)[C@H](O)[C@@H](NC(=O)c4ccccc4)c4ccccc4)C(C)=C1C3(C)C)[C@]1(OC(C)=O)CO[C@@H]1C[C@@H]2O |  |  |  |  |  |  | < 9.49 nM |  |  | 21.2% and 20.1% and 16.9% | 7.51% and 10.1% and 8.5% | 14.2% and 12.2% and 9.35% | 10.6% and 11.8% and 8.52% | 9.35% and 10.1% and 7.28% | 7.9% and 9.86% and 6.94% |  |  |
| CC(C)n1c(=O)n(C)c2cnc3cc(F)c(-c4ccc(OCCCN5CCCCC5)nc4)cc3c21 | 77.5% and 102% and 83.2% | 79.5% and 84.1% and 87.8% | 78.7% and 88.7% and 68% | 76.8% and 87.2% and 74.2% | 80% and 93.2% and 82.2% | 53.6% and 72.2% and 62.8% | > 10000 nM |  |  |  |  |  |  |  |  |  |  |
| CC1COCCN1c1cc(-c2ccnn2C)c2ccnc(-c3ccn[nH]3)c2n1 (stereo unspecified) | 75.5% and 78.8% and 88.4% | 53.1% and 47.6% and 54.7% | 11.6% and 8.88% and 12.7% | 8.44% and 8.27% and 10.5% | 10.4% and 10.8% and 12.3% | 5.02% and 6.19% and 8.08% | 109 nM and 91.5 nM and 114 nM |  |  |  |  |  |  |  |  |  |  |
| CC1COCCN1c1cc(C2(S(C)(=N)=O)CC2)nc(-c2ccnc3[nH]ccc23)n1 (stereo unspecified) | 78.3% and 87.6% and 81.5% | 69.2% and 89.3% and 88.1% | 71.7% and 86.7% and 72.9% | 80.9% and 82.7% and 76.1% | 34.5% and 44.9% and 28.5% | 5.53% and 11.9% and 6.3% | 2040 nM and 2710 nM and 1870 nM |  |  |  |  |  |  |  |  |  |  |
| CCCS(=O)(=O)Nc1ccc(F)c(C(=O)c2c[nH]c3ncc(-c4ccc(Cl)cc4)cc23)c1F | 95.9% and 86.2% and 78.9% | 93.8% and 93.3% and 98.6% | 87.6% and 96.1% and 91.3% | 87% and 91% and 69% | 84.2% and 84% and 74.1% | 57.6% and 51.9% and 57.4% | > 10000 nM |  |  |  |  |  |  |  |  |  |  |
| CC[C@@]1(O)C(=O)OCc2c1cc1n(c2=O)Cc2cc3c(CN(C)C)c(O)ccc3nc2-1 | 45.8% and 43% and 45.2% | 14.7% and 26.1% and 10.6% |  |  |  |  | 27.2 nM and 26.3 nM and 27.1 nM | 97.8% and 92.2% and 75.9% | 78.5% and 86.5% and 81.9% |  |  |  |  |  |  | 86.7% and 95.5% and 87.2% | 82.9% and 87.3% and 91.6% |
| CCc1c2c(nc3ccc(O)cc13)-c1cc3c(c(=O)n1C2)COC(=O)[C@]3(O)CC | 6.11% and 11.4% and 5.39% | 2.46% and 4.85% and 2.38% | 1.23% and 4.28% and 1.04% | 1.89% and 0.95% and 0.4% |  |  | < 3.16 nM | 45.6% and 49.3% and 46.8% | 11.9% and 17.2% and 7.71% |  |  |  |  |  |  |  |  |
| CCc1cc2c(N3CCc4c(cc(Cn5ccnc5)cc4-c4cn(C)nc4C(F)(F)F)C3=O)cc(C)nc2c(OC)n1 | 70.7% and 94% and 69.3% | 73.2% and 69.1% and 70.4% | 54.8% and 60.2% and 68.2% | 55.9% and 57.2% and 61.2% | 41.9% and 60.5% and 56.2% | 40% and 47.3% and 48.9% | 1260 nM and > 10000 nM and 8120 nM |  |  |  |  |  |  |  |  |  |  |
| CCc1cc2c(N3CCc4c(cc(Cn5ccnc5)cc4-c4cn(C)nc4C(F)(F)F)C3=O)ccnc2c(OC)n1 | 72.1% and 87.3% and 77.8% | 65% and 74.8% and 74.2% | 53.4% and 64% and 69.2% | 54.6% and 64.1% and 67.8% | 63.3% and 59.9% and 57.4% | 37.2% and 57.8% and 53.6% | 3400 nM and > 10000 nM |  |  |  |  |  |  |  |  |  |  |
| CNCc1ccc(-c2[nH]c3cc(F)cc4c3c2CCNC4=O)cc1 | 79.5% and 90.1% and 98.3% | 85.4% and 95.9% and 92.6% | 76.9% and 93.3% and 85.4% | 77.7% and 96% and 82.6% | 71.9% and 100% and 80.1% | 56.2% and 82.1% and 66.5% | > 10000 nM |  |  |  |  |  |  |  |  |  |  |
